“Also recorded” adds a separate entry of the source.
Assays:
[1] = molecular target: T1, single component neutral pork zinc insulin (Sus scrofa, UniProt P01315); experiment: Controlled shaking of zinc insulin solutions in test tubes, optical density at 600 nm; format: physicochemical; settings: for Protective effect against insulin aggregation (in words): agent added to insulin solution at acid pH 3.3-3.5; for Optical Density ± 1 × SE: zinc insulin 50 U/ml, OD at 600 nm
T1 construct: single component, neutral, pork, zinc-insulin (U.500 regular Iletin II., Eli Lilly & Company); purchased Eli Lilly & Company U.500 regular Iletin II
Description: In vitro testing of single component neutral pork zinc insulin was undertaken with a number of added agents. Solutions at about neutral pH and at acid pH were tested. In addition, some testing was also undertaken with Na insulin.
The tests were conducted using plastic tybes (5 ml test tubes, Sarstedt, sealed by plastic caps covered with paraffin) each containing 2 ml of the insulin solutions noted below. The tubes were continuously agitated in a metabolic shaking incubator (Dubnoff E.C.A. Co.) at 60 to 80 r.p.m. and 37° C. for periods up to sixteen days.
The zinc insulin solutions were prepared by appropriate dilutions of highly concentrated (500 U/ml) single component, neutral, pork, zinc-insulin (U.500 regular Iletin II., Eli Lilly & Company). The unbuffered diluting fluid contained glycerin, 16 mg/ml, and phenol, 2 mg/ml of distilled water (Eli Lilly & Company). […] Final insulin concentration in all solutions was 50 U/ml (2 mg/ml).
Insulin solutions with amino acid added were prepared by addition of the dry amino acids (Sigma Company) to the neutral zinc or sodium insulin solutions. Final concentration of the amino acid additives was 7 mg per ml of insulin solution. pH was adjusted, when necessary, to 7.5 for neutral insulin mixtures and to 3.3-3.5 for acid insulin mixtures.
Several non-amino carboxylic acids, i.e., lactic acid, acetic acid, and citric acid, were added under the same conditions of concentration and pH as described for the amino acids.
The various insulin solutions, both as made up without additives and with additives, were shaken as noted above for up to sixteen days, at which time the solutions were examined with an optical densitometer at a wave length 600 nm. The optical density (OD) of each solution was an indication of the amount of aggregation present after the shaking period. The higher the optical density, the greater the aggregation in that solution.

insulin = settings: supplemental material added to insulin solution; cited from earlier work
[2] = pH 7.4, shaken 16 days at 37° C., higher OD = greater aggregation
[3] = pH 3.3-3.5, shaken 16 days at 37° C.

T1 sequence (P01315 25-54 limits assumed): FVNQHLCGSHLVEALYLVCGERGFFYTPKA
T1 sequence (P01315 88-108 limits assumed): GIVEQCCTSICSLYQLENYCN

Structure (SMILES) | Protective effect against insulin aggregation (in words) [1] | Optical Density ± 1 × SE [1, 2] | further results
N=C(N)NCCC[C@H](N)C(=O)O [Arginine] | no protective effect was noted | 0.074 ± 0.03 | Observation of the solution after shaking ([1]; zinc insulin, pH 7.4, 16 days): Gel formed
N[C@@H](CSSC[C@H](N)C(=O)O)C(=O)O [cystine] | no protective effect was noted | – | –
C[C@@H](O)[C@H](N)C(=O)O [Threonine] | no protective effect was noted | 0.76 ± 0.02 | –
OCc1ccccc1 [benzol alcohol] | – | – | Effect in preventing the aggregation of insulin in solution over extended periods of time (insulin): do not appear to have any appreciable effect
Cl [hydrochloric acid] | a comparable protective effect was not noted | – | –
O=C(O)[C@@H]1CCCN1 [Proline] | no protective effect was noted | 0.665 ± 0.21 | –
NCC(=O)O [Glycine] | no protective effect was noted | 0.66 ± 0.095 | Optical Density ± 1 × SE [1, 3]: 0.28 ± 0.04; Effect in preventing the aggregation of insulin in solution over extended periods of time (insulin): do not appear to have any appreciable effect
CC(C)[C@H](N)C(=O)O [Valine] | no protective effect was noted | 0.64 ± 0.26 | –
[Cl-].[Na+] [sodium chloride] | – | – | Effect in preventing the aggregation of insulin in solution over extended periods of time (insulin): do not appear to have any appreciable effect
O=C([O-])O.[Na+] [sodium bicarbonate] | – | – | Effect in preventing the aggregation of insulin in solution over extended periods of time (insulin): do not appear to have any appreciable effect
CC(O)C(=O)O (centres unmarked) [Lactic Acid] | do not prevent aggregation; also recorded: a comparable protective effect was not noted | – | Protective effect against insulin aggregation (in words) ([1]; listed as lactate): exacerbate aggregation
N[C@@H](CO)C(=O)O [Serine] | no protective effect was noted | 0.89 ± 0.02 | –
NCCCC[C@H](N)C(=O)O [Lysine] | no protective effect was noted | 0.25 ± 0.08 | Optical Density ± 1 × SE [1, 3]: 0.35 ± 0.13
O=C(O)CN(CCN(CC(=O)O)CC(=O)O)CC(=O)O [ethylene diamine tetraacetic acid] | – | – | Effect in preventing the aggregation of insulin in solution over extended periods of time (insulin): do not appear to have any appreciable effect
O=C(O)CC(O)(CC(=O)O)C(=O)O [Citric Acid] | do not prevent aggregation; also recorded: a comparable protective effect was not noted | – | Protective effect against insulin aggregation (in words) ([1]; listed as citrate): exacerbate aggregation
CC(C)C[C@H](N)C(=O)O [Leucine] | no protective effect was noted | 0.695 ± 0.03 | –
N[C@@H](Cc1c[nH]c2ccccc12)C(=O)O [Tryptophane] | no protective effect was noted | 0.585 ± 0.200 | –
CC(=O)O [Acetic Acid] | do not prevent aggregation; also recorded: a comparable protective effect was not noted | – | Protective effect against insulin aggregation (in words) ([1]; listed as acetate): exacerbate aggregation
O=P(O)(O)O [sodium phosphate] | – | – | Effect in preventing the aggregation of insulin in solution over extended periods of time (insulin): do not appear to have any appreciable effect
CSCC[C@H](N)C(=O)O [Methionine] | no protective effect was noted | 0.74 ± 0.22 | –
NC(=O)C[C@H](N)C(=O)O [Asparagine] | no protective effect was noted | 0.87 ± 0.13 | –
C[C@H](N)C(=O)O [Alanine] | no protective effect was noted | 0.84 ± 0.04 | Optical Density ± 1 × SE [1, 3]: 0.41 ± 0.02
NC(=O)CC[C@H](N)C(=O)O [Glutamine] | no protective effect was noted | 0.68 ± 0.03 | –

Reference: US4371523A, “Reducing the aggregation of insulin in solution” (The Regents of the University of California, priority 1980, dated 1983)
